Measurements published in BindingDB's records for doi:10.1074/jbc.M110.164293 (Manchester Interdisciplinary Biocentre, 2010).

Columns and labels:
Assay in all cases: Binding Assay
[1] = biological target: T1, Steroid C26-monooxygenase (Mycobacterium tuberculosis (strain CDC 1551 / Oshkosh), UniProt P9WPP0)
T1 sequence (P9WPP0 whole entry): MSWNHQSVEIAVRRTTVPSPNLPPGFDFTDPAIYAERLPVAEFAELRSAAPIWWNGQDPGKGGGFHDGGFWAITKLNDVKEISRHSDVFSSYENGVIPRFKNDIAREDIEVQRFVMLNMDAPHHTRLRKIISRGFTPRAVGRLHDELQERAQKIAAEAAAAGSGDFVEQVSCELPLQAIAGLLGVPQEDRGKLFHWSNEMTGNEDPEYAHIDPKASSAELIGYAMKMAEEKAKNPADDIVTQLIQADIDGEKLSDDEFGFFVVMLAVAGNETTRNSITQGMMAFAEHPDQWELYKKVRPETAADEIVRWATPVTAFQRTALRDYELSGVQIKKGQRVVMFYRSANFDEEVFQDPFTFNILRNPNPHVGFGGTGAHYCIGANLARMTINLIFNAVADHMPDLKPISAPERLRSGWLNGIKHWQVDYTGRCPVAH
Excerpt: (§1) Substrate and ligand binding assay using UV- visible absorbance analysis of CYP142 was done on a Cary UV-50 UV-visible scanning spectrophotometer (Varian, UK) using a 1-cm path length quartz cuvette, recording spectra between 250 and 800 nm.

[2] = biological target: T2, Steroid C26-monooxygenase (Mycobacterium tuberculosis (strain CDC 1551 / Oshkosh), UniProt P9WPL4)
T2 sequence (P9WPL4 whole entry): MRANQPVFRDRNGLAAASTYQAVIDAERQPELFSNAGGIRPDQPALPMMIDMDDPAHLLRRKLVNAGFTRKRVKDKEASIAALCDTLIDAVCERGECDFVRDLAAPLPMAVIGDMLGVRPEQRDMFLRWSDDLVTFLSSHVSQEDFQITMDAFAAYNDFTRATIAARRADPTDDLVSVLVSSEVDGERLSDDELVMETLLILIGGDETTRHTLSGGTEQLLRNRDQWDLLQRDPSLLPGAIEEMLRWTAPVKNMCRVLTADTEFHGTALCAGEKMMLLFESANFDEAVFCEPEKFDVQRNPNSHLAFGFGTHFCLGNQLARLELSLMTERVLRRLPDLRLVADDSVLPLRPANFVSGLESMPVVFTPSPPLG
Excerpt: as §1

[3] = biological target: T3, Cytochrome P450 144 (Mycobacterium tuberculosis (strain CDC 1551 / Oshkosh), UniProt P9WPL0)
T3 sequence (P9WPL0 whole entry): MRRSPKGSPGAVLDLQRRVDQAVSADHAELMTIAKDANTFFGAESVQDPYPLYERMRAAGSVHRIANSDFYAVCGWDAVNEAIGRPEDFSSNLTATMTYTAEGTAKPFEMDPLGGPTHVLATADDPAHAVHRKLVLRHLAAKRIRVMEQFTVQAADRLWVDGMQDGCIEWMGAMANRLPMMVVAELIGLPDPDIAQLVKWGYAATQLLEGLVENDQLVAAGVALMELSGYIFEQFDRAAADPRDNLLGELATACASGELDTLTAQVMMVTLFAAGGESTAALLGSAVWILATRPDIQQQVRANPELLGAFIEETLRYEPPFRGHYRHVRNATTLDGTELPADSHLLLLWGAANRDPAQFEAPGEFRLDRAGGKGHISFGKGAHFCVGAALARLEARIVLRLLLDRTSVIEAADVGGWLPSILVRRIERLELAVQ
Excerpt: as §1

SMILES	Kd [1] [µM]	Kd [2] [µM]	Kd [3] [µM]
c1ccc(-c2c[nH]cn2)cc1	216	12	280
Clc1ccccc1C(c1ccccc1)(c1ccccc1)n1ccnc1	5.3	3.8	0.37
CC(C)CCC[C@@H](C)[C@H]1CC[C@H]2[C@@H]3CCC4=CC(=O)CC[C@]4(C)[C@H]3CC[C@]12C [4-Cholesten-3-one]	1.2	0.36	–
CC(=O)N1CCN(c2ccc(OC[C@H]3CO[C@](Cn4ccnc4)(c4ccc(Cl)cc4Cl)O3)cc2)CC1 [24F2-1,25(OH)D3]	27.1	21	134
CC(C)CCC[C@@H](C)[C@H]1CC[C@H]2[C@@H]3CC=C4C[C@@H](O)CC[C@]4(C)[C@H]3CC[C@]12C [(1S,2R,5S,10S,11S,14R,15R)-2,15-dimethyl-14-[(2R)-6-methylheptan-2-yl]tetracyclo[8.7.0.0^{2,7}.0^{11,15}]heptadec-7-en-5-ol]	0.11	0.34	–
Clc1ccc(CO[C@@H](Cn2ccnc2)c2ccc(Cl)cc2Cl)c(Cl)c1 [Brentan]	4.6	4	0.98
Clc1ccc(COC(Cn2ccnc2)c2ccc(Cl)cc2Cl)cc1 (configuration not stated) [ECONAZOLE]	11.7	4.6	0.78
OC(Cn1cncn1)(Cn1cncn1)c1ccc(F)cc1F [Fungata]	43.1	860	–
CCC(C)n1ncn(-c2ccc(N3CCN(c4ccc(OC[C@H]5CO[C@](Cn6cncn6)(c6ccc(Cl)cc6Cl)O5)cc4)CC3)cc2)c1=O (some centres not stated) [Oriconazole]	30.2	–	–
